Results as given in ChEMBL document CHEMBL1141728, “Transtorine, a new quinoline alkaloid from Ephedra transitoria” (1998).
Values after ≈ are worked out from the molar mass of the structure shown. Active and inactive are the calls of the source. The calls are words filed in the database; no cut-off is given here.

How the values were obtained:
[1] = system: Pseudomonas aeruginosa; experiment: Antibacterial activity against Pseudomonas aeruginosa by disk diffusion method; format: functional
[2] = system: Proteus mirabilis; experiment: Antibacterial activity against Proteus mirabilis by disk diffusion method
[3] = system: Shigella flexneri; experiment: Antibacterial activity against Shigella flexneri by disk diffusion method; format: functional
[4] = system: Bacillus subtilis; experiment: Antibacterial activity against Bacillus subtilis by disk diffusion method
[5] = system: Enterobacter cloacae; experiment: Antibacterial activity against Enterobacter cloacae by disk diffusion method; format: functional
[6] = system: Staphylococcus aureus; experiment: Antibacterial activity against Staphylococcus aureus by disk diffusion method; format: functional

Row | MIC [5] | MIC [6] | SMILES | MIC [1] | MIC [2] | MIC [3] | MIC [4] | Activity [3]
1 | – | – | O=C(O)c1cn(C2CC2)c2cc(N3CCNCC3)c(F)cc2c1=O [CIPROFLOXACIN] | 20 µg/mL (≈ 60.4 µM) | 20 µg/mL (≈ 60.4 µM) | 20 µg/mL (≈ 60.4 µM) | 20 µg/mL (≈ 60.4 µM) | –
2 | 450 µg/mL (≈ 2380 µM) | 380 µg/mL (≈ 2010 µM) | O=C(O)c1cc(=O)c2ccccc2[nH]1 [TRANSTORINE] | 500 µg/mL (≈ 2640 µM) | – | – | – | inactive
